Data reported in patent US9487489B2, “Halogen-substituted pyrazole derivatives as pest-control agents” (BAYER CROPSCIENCE AKTIENGESELLSCHAFT, priority 2013, dated 2016).

What was measured:
[1] = tested on: greenhouse red spider mite (Tetranychus urticae); experiment: Tetranychus urticae spray test, OP-resistant (TETRUR); format: in vivo; details: bean leaf discs, after 6 days
Method in brief: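 Percent kill, scored 6 days post-spray (0% = none dead, 100% = all dead), on Phaseolus vulgaris leaf discs infested with every life stage of the OP-resistant spider mite. Compound dissolved in acetone plus DMF, diluted to test concentration with emulsifier-containing water (1000 ppm).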

[2] = tested on: engorged adult female cattle ticks (Boophilus microplus); experiment: Boophilus microplus injection test (BOOPMI Inj); format: in vivo; details: application rate 20 μg/animal; injection into abdomen; assessed after 7 days
Method in brief: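 Efficacy is read at 7 days as fertile egg laying (100% = no fertile eggs laid; 0% = all eggs fertile), with eggs of unclear fertility stored until larvae hatch at about 42 days. Five engorged adult females per dose each receive an abdominal injection of 1 μl compound dissolved in DMSO.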

[3] = tested on: larvae of the mustard beetle (Phaedon cochleariae); experiment: Phaedon cochleariae spray test (PHAECO); format: in vivo; details: Chinese cabbage leaf discs, after 7 days
Method in brief: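 Kill of mustard beetle larvae is read as % mortality 7 days after spraying. Spray liquid: active compound in acetone plus dimethylformamide, brought up with water holding 1000 ppm alkylaryl polyglycol ether emulsifier and diluted further in emulsifier-water.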

[4] = tested on: L1 larvae of the Australian sheep blowfly (Lucilia cuprina); experiment: Lucilia cuprina test (LUCICU); format: in vivo; details: application rate 100 ppm; after 2 days
Method in brief: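 Percent mortality read at 2 days; 100% = all larvae killed, 0% = none. Test compound, predissolved in DMSO and water-diluted to the wanted level, was mixed into minced horsemeat holding roughly 20 first-instar larvae.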

[5] = tested on: adult houseflies (Musca domestica); experiment: Musca domestica test (MUSCDO); format: in vivo; details: application rate 100 ppm; after 2 days
Method: F. Musca domestica Test (MUSCDO)
Solvent: dimethyl sulphoxide
To produce a suitable preparation of active compound, 10 mg of active compound are mixed with 0.5 ml of dimethyl sulphoxide, and the concentrate is diluted with water to the desired concentration.
Vessels containing a sponge treated with sugar solution and the active compound preparation of the desired concentration are populated with 10 adult houseflies (Musca domestica).
After 2 days, the kill in % is determined. 100% means that all of the flies have been killed; 0% means that none of the flies have been killed.

[6] = tested on: adult cat fleas (Ctenocephalides felis); experiment: Ctenocephalides felis oral test (CTECFE); format: in vivo; details: application rate 100 ppm in citrated cattle blood; after 2 days
Method in brief: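 Mortality read at 2 days as percent of fleas killed. Compound predissolved in DMSO, diluted into citrated cattle blood and offered to roughly 20 unfed adult C. felis via parafilm membrane feeder.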

[7] = tested on: caterpillars of the armyworm (Spodoptera frugiperda); experiment: Spodoptera frugiperda spray test (SPODFR); format: in vivo; details: maize leaf discs, after 7 days
Method in brief: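 Percent kill read at day 7 on caterpillar-infested maize leaf discs. Discs were first sprayed with aqueous emulsifier-containing (1000 ppm) preparations made from acetone/dimethylformamide solutions, and dried. Scale: 0% none dead, 100% all dead.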

[8] = tested on: adult dog ticks (Rhipicephalus sanguineus); experiment: Rhipicephalus sanguineus in vitro contact test with adult brown dog ticks (T2); details: after 48 h
Method in brief: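 Acetone solutions coated onto test tube walls and floor, giving 5 μg/cm^2 at 900 ppm. Five to ten adult ticks held per tube in the dark at room temperature for 48 h, then heated at 45-50° C for up to 5 min; efficacy is the percentage of dead or moribund ticks unable to climb away.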

[9] = logP determination by HPLC on a reversed-phase column (C18), EEC Directive 79/831 Annex V.A8; format: physicochemical; details: HPLC on reversed-phase column (C18), acetonitrile/water with formic acid, EEC Directive 79/831 Annex V.A8
Method in brief: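 Per EEC 79/831 Annex V.A8, values derive from HPLC retention at 2.0 ml/min and 55° C on a 50*4.6 C18 column. The 10→95% acetonitrile gradient (0.1%/0.09% formic acid) lasted 4.25 min plus a 1.25 min hold; mass detection was by MSD.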

[10] = tested on: adult cat fleas (Ctenocephalides felis); experiment: Ctenocephalides felis in vitro contact test with adult cat fleas (T1); details: application rate 5 μg/cm^2; after 48 h
Method in brief: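 Adult cat fleas (Ctenocephalides felis), 5-10 per tube, were exposed to the inner surface of 25 ml test tubes coated with compound in acetone. Tubes were incubated lying flat under ambient conditions. Efficacy was then read by standing tubes upright and knocking the fleas to the floor. Fleas that stayed motionless or moved uncoordinatedly counted as dead or moribund, where 100% means all fleas dead or moribund and 0% means none harmed.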

SMILES: Cn1nc(C(F)(F)C(F)(F)F)c(C(F)(F)F)c1-n1cc(-c2cc(C(=O)NC3CC3)cc(C(F)(F)F)c2)cn1 [Ic-59]
- efficacy in % ([1]; application rate 100 g/ha): 90%
- efficacy (laying of fertile eggs) [2]: 100%
- efficacy in % ([3]; application rate 500 g/ha): 100%
- efficacy (kill in %) [4]: 100%
- efficacy (kill in %) [5]: 100%
- efficacy (kill in %) [6]: 100%
- efficacy in % ([7]; application rate 500 g/ha): 100%
- efficacy (dead or moribund ticks) ([8]; application rate 1 μg/cm^2): 100%

SMILES: COc1ccc(-c2cnn(-c3c(C(F)(F)F)c(C(F)(F)C(F)(F)F)nn3C)c2)cc1C(=O)NC1(C#N)CC1 [Ic-67]
- logP [9]: 3.77
- efficacy in % ([1]; application rate 100 g/ha): 100%
- efficacy (laying of fertile eggs) [2]: 100%
- efficacy in % ([3]; application rate 100 g/ha): 100%
- efficacy (kill in %) [4]: 100%
- efficacy (kill in %) [5]: 95%
- efficacy (kill in %) [6]: 100%
- efficacy (dead or moribund ticks) ([8]; application rate 1 μg/cm^2): 80%

SMILES: CC(CC1CC1)NC(=O)c1cc(-c2cnn(-c3c(C(F)(F)F)c(C(F)(F)C(F)(F)F)nn3C)c2)ccc1Cl (stereo not drawn) [Ic-161]
- efficacy in % ([1]; application rate 500 g/ha): 100%
- efficacy (laying of fertile eggs) [2]: 100%
- efficacy in % ([3]; application rate 500 g/ha): 100%
- efficacy (kill in %) [4]: 100%
- efficacy (kill in %) [5]: 80%
- efficacy (kill in %) [6]: 100%
- efficacy in % ([7]; application rate 500 g/ha): 100%
- efficacy (dead or moribund ticks) ([8]; application rate 1 μg/cm^2): 80%
- efficacy (dead or moribund ticks) ([8]; application rate 5 μg/cm^2): 100%

SMILES: Cn1nc(C(F)(F)C(F)(F)F)c(C(F)(F)F)c1-n1cc(-c2ccc(F)c(C(=O)NC3CC3)c2F)cn1 [Ic-174]
- efficacy (laying of fertile eggs) [2]: 100%
- efficacy in % ([3]; application rate 500 g/ha): 100%
- efficacy (kill in %) [4]: 100%
- efficacy (kill in %) [5]: 100%
- efficacy (kill in %) [6]: 100%
- efficacy in % ([7]; application rate 500 g/ha): 100%
- efficacy (dead or moribund ticks) ([8]; application rate 1 μg/cm^2): 100%
- efficacy (dead or moribund ticks) ([8]; application rate 5 μg/cm^2): 100%

SMILES: Cn1nc(C(F)(F)C(F)(F)F)c(C(F)(F)F)c1-n1cc(-c2ccc(Cl)c(C(=O)Nc3ccc(Cl)cc3)c2)cn1 [Ic-25]
- logP [9]: 4.93
- efficacy (laying of fertile eggs) [2]: 100%
- efficacy in % ([3]; application rate 100 g/ha): 100%
- efficacy (kill in %) [4]: 100%
- efficacy (kill in %) [5]: 90%
- efficacy (kill in %) [6]: 95%
- efficacy in % ([7]; application rate 100 g/ha): 100%
- efficacy (dead or moribund ticks) ([8]; application rate 1 μg/cm^2): 100%
- efficacy (dead or moribund ticks) ([8]; application rate 5 μg/cm^2): 100%

SMILES: COc1ccc(-c2cnn(-c3c(C(F)(F)F)c(C(F)(F)C(F)(F)F)nn3C)c2)cc1C(=O)NC1CC1 [Ic-68]
- logP [9]: 3.86
- efficacy in % ([1]; application rate 100 g/ha): 100%
- efficacy (laying of fertile eggs) [2]: 100%
- efficacy in % ([3]; application rate 100 g/ha): 100%
- efficacy (kill in %) [4]: 100%
- efficacy (kill in %) [5]: 80%
- efficacy (kill in %) [6]: 100%
- efficacy in % ([7]; application rate 100 g/ha): 83%
- efficacy (dead or moribund ticks) ([8]; application rate 1 μg/cm^2): 100%
- efficacy (dead or moribund fleas) [10]: 100%

SMILES: Cn1nc(C(F)(F)C(F)(F)F)c(C(F)(F)F)c1-n1cc(-c2cc(C(=O)NC3(C#N)CC3)ncc2F)cn1 [Ic-73]
- efficacy in % ([1]; application rate 100 g/ha): 100%
- efficacy (laying of fertile eggs) [2]: 100%
- efficacy in % ([3]; application rate 500 g/ha): 100%
- efficacy (kill in %) [4]: 100%
- efficacy (kill in %) [5]: 90%
- efficacy (kill in %) [6]: 100%
- efficacy in % ([7]; application rate 100 g/ha): 100%
- efficacy in % ([7]; application rate 500 g/ha): 100%
- efficacy (dead or moribund ticks) ([8]; application rate 1 μg/cm^2): 80%
- efficacy (dead or moribund ticks) ([8]; application rate 5 μg/cm^2): 80%

SMILES: Cn1nc(C(F)(F)C(F)(F)F)c(C(F)(F)F)c1-n1cc(-c2ccc(Cl)c(C(=O)NC3CC3)c2F)cn1 [Ic-106]
- efficacy (laying of fertile eggs) [2]: 100%
- efficacy in % ([3]; application rate 500 g/ha): 100%
- efficacy (kill in %) [4]: 100%
- efficacy (kill in %) [5]: 100%
- efficacy (kill in %) [6]: 100%
- efficacy in % ([7]; application rate 500 g/ha): 83%
- efficacy (dead or moribund ticks) ([8]; application rate 5 μg/cm^2): 100%
